Reference: ChEMBL document CHEMBL1154649, “Anti-HBV agents. Part 3: preliminary structure-activity relationships of tetra-acylalisol A derivatives as potent hepatitis B virus inhibitors” (Bioorg Med Chem Lett, 2009)

Tests used:
Hepatitis B virus [1] = assay: Antiviral activity against HBV assessed as inhibition of viral surface antigen secretion; type: functional, organism-based
[2] = Cytotoxicity against human HepG2(2.2.15) cells; type: cell-based
Hepatitis B virus [3] = assay: Antiviral activity against HBV assessed as inhibition of viral early antigen secretion; type: functional, organism-based
[4] = Selectivity index, ratio of CC50 for human HepG2(2.2.15) cells to IC50 for HBV surface antigen secretion; type: functional
[5] = Drug level in Sprague-Dawley rat blood at 10 mg/kg, ig after 4 hrs; type: ADME, organism-based; design: dose 10 mg/kg, route intragastric; conditions: po, read-out: Drug uptake
[6] = Drug level in Sprague-Dawley rat blood at 10 mg/kg, ig after 1 hr; type: ADME, organism-based; design: dose 10 mg/kg, route intragastric; conditions: po, read-out: Drug uptake
[7] = Drug level in Sprague-Dawley rat blood at 2 mg/kg, iv after 1 hr; type: ADME, organism-based; design: dose 2 mg/kg, route intravenous; conditions: read-out: Drug uptake
[8] = Drug level in Sprague-Dawley rat blood at 2 mg/kg, iv after 4 hrs; type: ADME, organism-based; design: dose 2 mg/kg, route intravenous; conditions: read-out: Drug uptake
[9] = Drug level in Sprague-Dawley rat blood at 10 mg/kg, ig after 2 hrs; type: ADME, organism-based; design: dose 10 mg/kg, route intragastric; conditions: po, read-out: Drug uptake
[10] = Drug level in Sprague-Dawley rat blood at 10 mg/kg, ig after 0.25 hrs; type: ADME, organism-based; design: dose 10 mg/kg, route intragastric; conditions: po, read-out: Drug uptake
[11] = Drug level in Sprague-Dawley rat blood at 2 mg/kg, iv after 0.5 hrs; type: ADME, organism-based; design: dose 2 mg/kg, route intravenous; conditions: read-out: Drug uptake
[12] = Cmax in Sprague-Dawley rat at 10 mg/kg, ig; type: ADME, organism-based; design: dose 10 mg/kg, route intragastric; conditions: in vivo, po
[13] = Drug level in Sprague-Dawley rat blood at 2 mg/kg, iv after 2 hrs; type: ADME, organism-based; design: dose 2 mg/kg, route intravenous; conditions: read-out: Drug uptake
Rattus norvegicus [14] = assay: Clearance in Sprague-Dawley rat at 2 mg/kg, iv; type: ADME, organism-based; design: dose 2 mg/kg, route intravenous; conditions: in vivo
Rattus norvegicus [15] = assay: AUC in Sprague-Dawley rat at 10 mg/kg, ig; type: ADME, organism-based, Plasma; design: dose 10 mg/kg, route intragastric; conditions: in vivo, po
[16] = Half life in Sprague-Dawley rat at 2 mg/kg, iv; type: ADME, organism-based; design: dose 2 mg/kg, route intravenous; conditions: in vivo
[17] = Drug level in Sprague-Dawley rat blood at 10 mg/kg, ig after 0.5 hrs; type: ADME, organism-based; design: dose 10 mg/kg, route intragastric; conditions: po, read-out: Drug uptake
[18] = Drug level in Sprague-Dawley rat blood at 2 mg/kg, iv after 0.25 hrs; type: ADME, organism-based; design: dose 2 mg/kg, route intravenous; conditions: read-out: Drug uptake
[19] = Drug level in Sprague-Dawley rat blood at 2 mg/kg, iv after 0.083 hrs; type: ADME, organism-based; design: dose 2 mg/kg, route intravenous; conditions: read-out: Drug uptake
Rattus norvegicus [20] = assay: Oral bioavailability in Sprague-Dawley rat at 10 mg/kg; type: ADME, organism-based; conditions: in vivo
[21] = Drug level in Sprague-Dawley rat blood at 2 mg/kg, iv after 8 hrs; type: ADME, organism-based; design: dose 2 mg/kg, route intravenous; conditions: read-out: Drug uptake
Rattus norvegicus [22] = assay: AUC in Sprague-Dawley rat at 2 mg/kg, iv; type: ADME, organism-based, Plasma; design: dose 2 mg/kg, route intravenous; conditions: in vivo
[23] = Selectivity index, ratio of CC50 for human HepG2(2.2.15) cells to IC50 for HBV early antigen secretion; type: functional
[24] = Initial plasma concentration n Sprague-Dawley rat at 2 mg/kg, iv; type: ADME, organism-based; design: dose 2 mg/kg, route intravenous
[25] = Drug level in Sprague-Dawley rat blood at 10 mg/kg, ig after 24 hrs; type: ADME, organism-based; design: dose 10 mg/kg, route intragastric; conditions: po, read-out: Drug uptake
[26] = Tmax in Sprague-Dawley rat at 10 mg/kg, ig; type: ADME, organism-based; design: dose 10 mg/kg, route intragastric; conditions: in vivo, po
[27] = Drug level in Sprague-Dawley rat blood at 2 mg/kg, iv after 24 hrs; type: ADME, organism-based; design: dose 2 mg/kg, route intravenous; conditions: read-out: Drug uptake
[28] = Drug level in Sprague-Dawley rat blood at 10 mg/kg, ig after 0.083 hrs; type: ADME, organism-based; design: dose 10 mg/kg, route intragastric; conditions: po, read-out: Drug uptake
[29] = Drug level in Sprague-Dawley rat blood at 10 mg/kg, ig after 8 hrs; type: ADME, organism-based; design: dose 10 mg/kg, route intragastric; conditions: po, read-out: Drug uptake
[30] = Volume of distribution at steady state in Sprague-Dawley rat at 2 mg/kg, iv; type: ADME, organism-based; design: dose 2 mg/kg, route intravenous; conditions: in vivo, read-out: Vdss

SMILES: CCC(=O)O[C@@H](C[C@@H](C)C1=C2C[C@H](OC(=O)CC)[C@H]3[C@@]4(C)CCC(=O)C(C)(C)[C@@H]4CC[C@]3(C)[C@@]2(C)CC1)[C@@H](OC(=O)CC)C(C)(C)OC(=O)CC
- IC50 (Hepatitis B virus [1]): 900 µM
- CC50 [2]: > 1900 µM
- IC50 (Hepatitis B virus [3]): > 1900 µM
- Ratio CC50/IC50 [4]: >2.1

SMILES: CC(=O)O[C@@H](C[C@@H](C)C1=C2C[C@H](OC(C)=O)[C@H]3[C@@]4(C)CCC(=O)C(C)(C)[C@@H]4CC[C@]3(C)[C@@]2(C)CC1)[C@@H](OC(C)=O)C(C)(C)OC(C)=O
- concentration at 4 h [5]: 55.9 ng/mL
- concentration at 1 h [6]: 383 ng/mL
- concentration at 1 h [7]: 156 ng/mL
- concentration at 4 h [8]: 14.5 ng/mL
- IC50 (Hepatitis B virus [1]): 4.8 µM
- concentration at 2 h [9]: 290 ng/mL
- concentration at 0.25 h [10]: 70 ng/mL
- concentration at 0.5 h [11]: 246 ng/mL
- Cmax [12]: 383 ng/mL
- concentration at 2 h [13]: 71.8 ng/mL
- CL (Rattus norvegicus [14]): 64.5 mL/min/kg
- AUC (Rattus norvegicus [15]): 1040 ng·h/mL
- half-life [16]: 1.63 h
- concentration at 0.5 h [17]: 170 ng/mL
- concentration at 0.25 h [18]: 363 ng/mL
- concentration at 0.083 h [19]: 567 ng/mL
- F (Rattus norvegicus [20]): 40.9%
- concentration at 8 h [21]: 5.02 ng/mL
- AUC (Rattus norvegicus [22]): 510 ng·h/mL
- Ratio CC50/IC50 [23]: >145
- CC50 [2]: > 1600 µM
- IC50 (Hepatitis B virus [3]): 11 µM
- C0 [24]: 567 ng/mL
- concentration at 24 h [25]: 2.03 ng/mL
- Tmax [26]: 1 h
- Ratio CC50/IC50 [4]: >333
- concentration at 24 h [27]: 2.19 ng/mL
- concentration at 0.083 h [28]: 8.6 ng/mL
- concentration at 8 h [29]: 6.28 ng/mL
- Vd [30]: 5.73 L/kg

SMILES: CC(=O)OC(C)(C)[C@H](OC(=O)C(C)C)[C@H](C[C@@H](C)C1=C2C[C@H](OC(=O)C(C)C)[C@H]3[C@@]4(C)CCC(=O)C(C)(C)[C@@H]4CC[C@]3(C)[C@@]2(C)CC1)OC(=O)C(C)C
- IC50 (Hepatitis B virus [1]): > 1900 µM
- Ratio CC50/IC50 [23]: >1.3
- CC50 [2]: > 1900 µM
- IC50 (Hepatitis B virus [3]): 1500 µM

SMILES: C[C@H](C[C@H](OC(=O)c1ccc(Cl)cc1)[C@@H](OC(=O)c1ccc(Cl)cc1)C(C)(C)OC(=O)c1ccc(Cl)cc1)C1=C2C[C@H](OC(=O)c3ccc(Cl)cc3)[C@H]3[C@@]4(C)CCC(=O)C(C)(C)[C@@H]4CC[C@]3(C)[C@@]2(C)CC1
- IC50 (Hepatitis B virus [1]): 480 µM
- CC50 [2]: > 1400 µM
- IC50 (Hepatitis B virus [3]): > 1400 µM
- Ratio CC50/IC50 [4]: >2.9

SMILES: C[C@H](C[C@H](O[Si](C)(C)C)[C@@H](O[Si](C)(C)C)C(C)(C)O[Si](C)(C)C)C1=C2C[C@H](O[Si](C)(C)C)[C@H]3[C@@]4(C)CCC(=O)C(C)(C)[C@@H]4CC[C@]3(C)[C@@]2(C)CC1
- IC50 (Hepatitis B virus [1]): 20 µM
- Ratio CC50/IC50 [23]: <1
- CC50 [2]: 51 µM
- IC50 (Hepatitis B virus [3]): > 51 µM
- Ratio CC50/IC50 [4]: 2.5

SMILES: COCC(=O)OC(C)(C)[C@H](OC(C)=O)[C@H](C[C@@H](C)C1=C2C[C@H](OC(C)=O)[C@H]3[C@@]4(C)CCC(=O)C(C)(C)[C@@H]4CC[C@]3(C)[C@@]2(C)CC1)OC(C)=O
- IC50 (Hepatitis B virus [1]): 4.4 µM
- Ratio CC50/IC50 [23]: 77
- CC50 [2]: 920 µM
- IC50 (Hepatitis B virus [3]): 12 µM
- Ratio CC50/IC50 [4]: 209

SMILES: CCOCC(=O)OC(C)(C)[C@H](OC(C)=O)[C@H](C[C@@H](C)C1=C2C[C@H](OC(C)=O)[C@H]3[C@@]4(C)CCC(=O)C(C)(C)[C@@H]4CC[C@]3(C)[C@@]2(C)CC1)OC(C)=O
- IC50 (Hepatitis B virus [1]): 14 µM
- Ratio CC50/IC50 [23]: >156
- CC50 [2]: > 2800 µM
- IC50 (Hepatitis B virus [3]): 18 µM
- Ratio CC50/IC50 [4]: >200

SMILES: CCC(=O)O[C@@H](C[C@@H](C)C1=C2C[C@H](OC(=O)CC)[C@H]3[C@@]4(C)CCC(=O)C(C)(C)[C@@H]4CC[C@]3(C)[C@@]2(C)CC1)[C@@H](OC(=O)CC)C(C)(C)OC(C)=O
- IC50 (Hepatitis B virus [1]): 460 µM
- Ratio CC50/IC50 [23]: >20
- CC50 [2]: > 1700 µM
- IC50 (Hepatitis B virus [3]): 86 µM
- Ratio CC50/IC50 [4]: >3.7

SMILES: CC(=O)O[C@@H](C[C@@H](C)[C@]12CC[C@@]3(C)[C@@]1(C[C@H](OC(C)=O)[C@H]1[C@@]4(C)CCC(=O)C(C)(C)[C@@H]4CC[C@@]13C)O2)[C@@H](OC(C)=O)C(C)(C)OC(C)=O
- IC50 (Hepatitis B virus [1]): 46 µM
- Ratio CC50/IC50 [23]: >66
- CC50 [2]: > 4000 µM
- IC50 (Hepatitis B virus [3]): 61 µM
- Ratio CC50/IC50 [4]: >87

SMILES: CCC(=O)O[C@@H](C[C@@H](C)[C@]12CC[C@@]3(C)[C@@]1(C[C@H](OC(=O)CC)[C@H]1[C@@]4(C)CCC(=O)C(C)(C)[C@@H]4CC[C@@]13C)O2)[C@@H](OC(=O)CC)C(C)(C)OC(=O)CC
- IC50 (Hepatitis B virus [1]): > 2200 µM
- Ratio CC50/IC50 [23]: >1.7
- CC50 [2]: > 2200 µM
- IC50 (Hepatitis B virus [3]): 1300 µM

SMILES: CC(=O)OC1=CC[C@@]2(C)[C@@H](CC[C@@]3(C)[C@H]2[C@@H](OC(C)=O)CC2=C([C@H](C)C[C@H](OC(C)=O)[C@@H](OC(C)=O)C(C)(C)OC(C)=O)CC[C@@]23C)C1(C)C
- IC50 (Hepatitis B virus [1]): > 2100 µM
- Ratio CC50/IC50 [23]: >7.5
- CC50 [2]: > 2100 µM
- IC50 (Hepatitis B virus [3]): 280 µM

SMILES: Nc1ccn([C@@H]2CS[C@H](CO)O2)c(=O)n1 [LAMIVUDINE]
- IC50 (Hepatitis B virus [1]): 13000 µM
- Ratio CC50/IC50 [23]: 1.6
- CC50 [2]: 35000 µM
- IC50 (Hepatitis B virus [3]): 22000 µM
- Ratio CC50/IC50 [4]: 2.7
